Assay [1] concerns the target T1, TGF-βRI (Homo sapiens, UniProt P36897).
T1 sequence (P36897 34-503): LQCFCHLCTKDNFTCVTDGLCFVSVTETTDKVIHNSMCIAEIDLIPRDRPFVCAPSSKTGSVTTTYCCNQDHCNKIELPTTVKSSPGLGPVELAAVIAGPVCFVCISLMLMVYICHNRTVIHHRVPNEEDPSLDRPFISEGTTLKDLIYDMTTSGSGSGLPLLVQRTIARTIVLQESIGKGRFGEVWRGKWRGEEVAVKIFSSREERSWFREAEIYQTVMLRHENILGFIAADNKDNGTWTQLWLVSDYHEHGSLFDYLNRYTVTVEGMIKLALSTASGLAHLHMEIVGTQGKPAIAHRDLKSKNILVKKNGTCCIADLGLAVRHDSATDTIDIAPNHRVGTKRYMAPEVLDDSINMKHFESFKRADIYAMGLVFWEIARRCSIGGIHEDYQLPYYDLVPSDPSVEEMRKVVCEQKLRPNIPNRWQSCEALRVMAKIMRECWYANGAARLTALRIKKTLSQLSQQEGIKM
The assay is described as follows: Test of inhibitory activity of TGFβ-RI in vitro. The format is biochemical. To be noted: 10 μM ATP. The procedure: i) Test compound: the IC50 was determined by diluting into 10 gradient points with each gradient by three-fold dilution and with a starting concentration of 5 μM.
ii) The IC50 of reference compound LDN193189 was determined by diluting into 10 gradient points with each gradient by three-fold dilution and with a starting concentration of 20 μM.
iii) The reaction system contains 10 μM ATP.
iv) Calculate the IC50 value by curve fitting when the percentage of enzyme activity (compared to the solvent group) is below 65% at the highest concentration of the sample.

Assay [2] has as its system NIH/3T3 mouse embryonic cells. The assay is described as follows: Test of proliferation inhibition on NIH/3T3 mouse embryonic cells (CellTiter-Glo, with TGF-β1). To be noted: NIH3T3, 0.2 ng/mL TGF-β1, 72 h. The assay is classed as cell-based. On the procedure:
Promega's Luminescent Cell Viability Assay (CellTiter-Glo® method, i.e. ATP fluorescence activity detection and analysis), the compound is added to the cell culture plate for incubation. A substrate buffer for detecting intracellular ATP content was added on the day of detection. Slightly shake and centrifuge at 1000 rpm for 1 min. Tested after standing for 10 min. The assay plate was analyzed using Envision multifunctional enzyme marker of PerkinElmer, Inc., and the analysis mode was fluorescence detection, and the data was expressed by the reading of chemiluminescence signal at 400-700 nm.
i) When the cell growth coverage is about 70%, the cell layer was washed with 10 mL of Duchenne phosphate buffer (D-PBS) which is calcium- and magnesium-free, then 2 mL of 0.25% trypsin-EDTA digest was added. The cell culture flask was placed in a CO2 carbon dioxide incubator at 37° C. and incubated for 3-5 min, then 8 mL of complete culture medium containing 2% FBS DMEM cells was added, and the cells were puffed evenly into single cell and counted by Vi-cell cytometer, and NIH/3T3 cell suspension was diluted to 0.375×10^5/mL cells.
ii) 50 μL of 2% DMEM-containing medium was added around the 384-well cell culture plate, then 40 μL of cell suspension was added to the remaining wells to 1500 cells per well. The distribution of the cells was observed under a microscope, and the cell plates were placed in a cell culture incubator with 5% CO2 at 37° C.
iii) Dilution of the compound refers to the preparation of the compound.
iv) A mixture of 2% fetal bovine serum containing 1 ng/mL TGF-β1 in DMEM medium was added manually to the compound intermediate plate, 20 μL per well.
v) The compound intermediate plate was shook slightly for 10 sec at 1000 rpm/min and centrifuge for 10 sec.
vi) 10 uL of the mixed liquid from steps 4 and 5 of each well was transferred to the inoculated cell plate to a final volume of 50 μL by using a Bravo liquid workstation, and the final concentration of TGF-β1 was diluted to 0.2 ng/mL, and centrifuged for 10 sec at 1000 rpm/min. The plates were placed in an incubator with 5% carbon dioxide at 37° C., 5% carbon dioxide for 72 h. The final concentration of the compound is: (unit: μM)
vii) The cell plate containing the compound was cultured in a cell incubator with 5% CO2 at 37° C. for 3 days.
viii) After that, 25 μL of ATP fluorescence activity detection solution was added to each well of the cell plate, then shook gently for about 1 min and centrifuged at 500 rpm/min for about 30 sec, and the reading was performed in an Envision instrument after standing at room temperature for 10 min in the dark.
A general note: In ATP-based viability assays light output follows the ATP content of the culture.

The structures appear in SMILES notation.

One may read the IC50 as the concentration that inhibits the measured activity by half. Low values mean greater potency, high ones weaker potency. For the compound `CCc1cccc(-c2nn3c(c2-c2ccc4ncnn4c2/C=C/C(N)=O)CCC3)n1` [Embodiment 10], the IC50 in assay [1] is 50 to 500 nM; in assay [2], 2000 to 5000 nM.
Turning to `Cc1cccc(-c2nn3c(c2-c2ccc4ncnn4c2/C=C/C(=O)NC2CC2)CCC3)n1` [Embodiment 4], the IC50 lay within 50 to 500 nM in assay [1] and 2000 to 5000 nM in assay [2].
`Cc1cc(C)nc(-c2nn3c(c2-c2ccc4ncnn4c2/C=C/C(N)=O)CCC3)c1` [Embodiment 11] came in with an IC50 in assay [1] of more than 500 nM.
On to `CCNC(=O)/C=C/c1c(-c2c(-c3cccc(C)n3)nn3c2CCC3)ccc2ncnn12` [Embodiment 3], for which the IC50 was 50 to 500 nM in assay [1] and 2000 to 5000 nM in assay [2].
On to `CNC(=O)/C=C/c1c(-c2c(-c3cccc(C)n3)nn3c2CCC3)ccc2ncnn12` [Embodiment 2], for which the IC50 fell in the range of 50 to 500 nM in assay [1] and 2000 to 5000 nM in assay [2].
The matching figures for `Cc1cccc(-c2nn(Cc3cccc(C#N)c3)cc2-c2ccc3ncnn3c2/C=C/C(N)=O)n1` [Embodiment 6]: 50 to 500 nM and 500 to 2000 nM.
Turning to `Cc1cccc(-c2nn(Cc3cccc(C(F)F)c3)cc2-c2ccc3ncnn3c2/C=C/C(N)=O)n1` [Embodiment 9], the IC50 in assay [1] was 50 to 500 nM; in assay [2], 500 to 2000 nM.
For the compound `Cc1cccc(-c2nn3c(c2-c2ccc4ncnn4c2/C=C/C(=O)NCCO)CCC3)n1` [Embodiment 5], the IC50 in assay [1] was 50 to 500 nM; in assay [2], more than 5000 nM.
In assay [1], `Cc1nc(-c2nn3c(c2-c2ccc4ncnn4c2/C=C/C(N)=O)CCC3)ccc1Cl` [Embodiment 12] yielded an IC50 of more than 500 nM.
The same measure, in the same setting: to `Cc1cccc(-c2nn(C3CCCC3)cc2-c2ccc3ncnn3c2/C=C/C(N)=O)n1` [Embodiment 7] belongs 50 to 500 nM.
Regarding `Cc1cccc(-c2nn(C(C)C)cc2-c2ccc3ncnn3c2/C=C/C(N)=O)n1` [Embodiment 8], the IC50 fell in the range of 50 to 500 nM in assay [1] and 2000 to 5000 nM in assay [2].

These data come from patent US10548883B2, “Benzotriazole-derived α and β-unsaturated amide compound used as TGF-β RI inhibitor” (GENFLEET THERAPEUTICS (SHANGHAI) INC., priority 2016, dated 2020).
